Experimental findings from patent publication US20240383852A1, “ANTI-VIRAL COMPOUNDS” (INFEX Therapeutics Limited, priority 2021, published 2024) are described below.

For one data set, the target named is T1, SARS-CoV-2 PLpro (Severe acute respiratory syndrome coronavirus 2, UniProt P0DTD1).
T1 construct: containing 60 nM papain-like protease
Description: biochemical. Conditions: 60 nM papain-like protease, 50 μM Z-RLRGG-AMC, pH 7.5, 37° C.; read-out: SARS-CoV-2 PLpro IC50.

Data set [1] deals with human Hep G2 cells (ATCC HB-8065). The experiment in a line: Cytotoxicity in Hep G2 cells (CellTiter-Glo). The data set is classed as cell-based. To be noted: Hep G2 cells, 100 μM test article, 24-hour exposure. On the technique in general: In ATP-based viability assays light output follows the ATP content of the culture.

In general, IC50 refers to the concentration needed to halve the response being measured. Consider `COc1ccc([C@@H](C)NC(=O)c2cc(N3CCN(C)CC3)ccc2C)cc1-c1ccccc1` [Example 203, N-[(1R)-1-(4-Methoxy-3-phenyl-phenyl)ethyl]-2-methyl-5-(4-methylpiperazin-1-yl)benzamide], for which the half-maximal inhibitory concentration (IC50) on SARS-CoV-2 PLpro is below 2 µM. For the same compound, the “% Cell Viability” value in data set [1] worked out at 0.9%.

Turning to `Cc1ccc(N2CCN(C)CC2)cc1C(=O)N[C@H](C)c1ccc(C)c(-c2cnn(C)c2)c1` [Example 228, 2-Methyl-N-[(1R)-1-[4-methyl-3-(1-methylpyrazol-4-yl)phenyl]ethyl]-5-(4-methylpiperazin-1-yl)benzamide], the half-inhibitory concentration (IC50) on SARS-CoV-2 PLpro was below 2 µM. Further, the “% Cell Viability” value in data set [1] turned out to be 69.9%.

`COc1ccc([C@@H](C)NC(=O)c2cc(N3CCN(C)CC3)ccc2C)cc1-c1ccncc1` [Example 211, N-[(1R)-1-[4-Methoxy-3-(4-pyridyl)phenyl]ethyl]-2-methyl-5-(4-methylpiperazin-1-yl)benzamide]: the IC50 at SARS-CoV-2 PLpro was below 2 µM. For the same compound, the “% Cell Viability” value in data set [1] turned out to be 86.0%.

For the compound `Cc1ccc(N2CCN(C)CC2)cc1C(=O)N[C@H](C)c1cccc(-c2ccsc2)c1` [Example 50, 2-Methyl-5-(4-methylpiperazin-1-yl)-N-[(1R)-1-[3-(3-thienyl)phenyl]ethyl]benzamide], the half-inhibitory concentration (IC50) at SARS-CoV-2 PLpro was below 2 µM. Moreover, the “% Cell Viability” value in data set [1] is recorded as 2.3%.

Take `COc1ccc([C@@H](C)NC(=O)c2cc(N3CCN(C)CC3)ccc2C)cc1C1CCNCC1` [Example 237, N-[(1R)-1-[4-Methoxy-3-(4-piperidyl)phenyl]ethyl]-2-methyl-5-(4-methylpiperazin-1-yl)benzamide]: the half-maximal inhibitory concentration (IC50) on SARS-CoV-2 PLpro is below 5 µM. Also, the “% Cell Viability” value in data set [1] worked out at 87.9%.

`Cc1ccc(C2CCN(C)CC2)cc1C(=O)N[C@H](C)c1cccc2ccccc12` [Example 157, 2-Methyl-5-(1-methyl-4-piperidyl)-N-[(1R)-1-(1-naphthyl)ethyl]benzamide]: on SARS-CoV-2 PLpro, the IC50 is below 2 µM. Moreover, in data set [1], the “% Cell Viability” value is recorded as 1.5%.

Regarding `Cc1ccc(N2CCCNCC2)cc1C(=O)N[C@H](C)c1cccc2ccccc12` [Example 128, 5-(1,4-Diazepan-1-yl)-2-methyl-N-[(1R)-1-(1-naphthyl)ethyl]benzamide], the IC50 on SARS-CoV-2 PLpro is below 2 µM. In data set [1], the “% Cell Viability” value was 1.1%.

Take `Cc1ccc(N2CCN(C)CC2)cc1C(=O)N[C@H](C)c1cccc(-c2cccc(C(=O)N3CCCCC3)c2)c1` [Example 91, 2-Methyl-5-(4-methylpiperazin-1-yl)-N-[(1R)-1-[3-[3-(piperidine-1-carbonyl)phenyl]phenyl]ethyl]benzamide]: at SARS-CoV-2 PLpro, the IC50 is below 2 µM. For the same compound, in data set [1], the “% Cell Viability” value came out at 27.1%.

Take `Cc1ccc(C2CC2)cc1C(=O)N[C@H](C)c1cccc2ccccc12` [Example 4, 5-Cyclopropyl-2-methyl-N-[(1R)-1-(1-naphthyl)ethyl]benzamide]: at SARS-CoV-2 PLpro, the IC50 is below 5 µM. In data set [1], the “% Cell Viability” value was found to be 56.8%.

For `Cc1ccc(N2CCN(C)CC2)cc1C(=O)N[C@H](C)c1cccc(-c2ccc(C3CCNCC3)cc2)c1` [Example 77, 2-Methyl-5-(4-methylpiperazin-1-yl)-N-[(1R)-1-[3-[4-(4-piperidyl)phenyl]phenyl]ethyl]benzamide], the IC50 at SARS-CoV-2 PLpro is below 2 µM. Besides, in data set [1], the “% Cell Viability” value worked out at 1.0%.

On to `Cc1ccc(N2CCN(C)CC2)cc1C(=O)N[C@H](C)c1ccc(OCc2ccccc2)c(-c2cnn(C)c2)c1` [Example 249, N-[(1R)-1-[4-Benzyloxy-3-(1-methylpyrazol-4-yl)phenyl]ethyl]-2-methyl-5-(4-methylpiperazin-1-yl)benzamide], for which, at SARS-CoV-2 PLpro, the IC50 was below 2 µM. For the same compound, the “% Cell Viability” value in data set [1] was 0.5%.

On to `Cc1ccc(N2CCN(C)CC2)cc1C(=O)N[C@H](C)c1ccc(OC(F)(F)F)c(Br)c1` [Example 190, N-[(1R)-1-[3-Bromo-4-(trifluoromethoxy)phenyl]ethyl]-2-methyl-5-(4-methylpiperazin-1-yl)benzamide], for which, at SARS-CoV-2 PLpro, the IC50 was below 5 µM. Also, the “% Cell Viability” value in data set [1] is 0.9%.

Turning to `Cc1ccc(N2CCN(C)CC2)cc1C(=O)N[C@H](C)c1cccc(-c2cccc(C(=O)NCCO)c2)c1` [Example 97, N-[(1R)-1-[3-[3-(2-Hydroxyethylcarbamoyl)phenyl]phenyl]ethyl]-2-methyl-5-(4-methylpiperazin-1-yl)benzamide], the IC50 at SARS-CoV-2 PLpro was below 2 µM. The “% Cell Viability” value in data set [1] amounted to 72.1%.

In the case of `COc1cc(Br)cc([C@@H](C)NC(=O)c2cc(N3CCN(C)CC3)ccc2C)c1` [Example 186, N-[(1R)-1-(3-Bromo-5-methoxy-phenyl)ethyl]-2-methyl-5-(4-methylpiperazin-1-yl)benzamide], the IC50 on SARS-CoV-2 PLpro was below 2 µM. For the same compound, the “% Cell Viability” value in data set [1] is listed as 1.0%.

Take `Cc1ccc(N2CCN(C)CC2)cc1C(=O)N[C@H](C)c1cccc(-c2cccc(C(C)(C)O)c2)c1` [Example 45, N-[(1R)-1-[3-[3-(1-Hydroxy-1-methyl-ethyl)phenyl]phenyl]ethyl]-2-methyl-5-(4-methylpiperazin-1-yl)benzamide]: at SARS-CoV-2 PLpro, the IC50 is below 2 µM. Besides, the “% Cell Viability” value in data set [1] was found to be 59.5%.

For the compound `COc1cc(-c2cn(C)nc2C)cc([C@@H](C)NC(=O)c2cc(N3CC4CNCC4C3)ccc2C)c1` (stereo partly drawn) [Example 268, 5-(2,3,3a,4,6,6a-Hexahydro-1H-pyrrolo[3,4-c]pyrrol-5-yl)-N-[(1R)-1-[3-(1,3-dimethylpyrazol-4-yl)-5-methoxy-phenyl]ethyl]-2-methyl-benzamide], the IC50 on SARS-CoV-2 PLpro is below 2 µM. Moreover, the “% Cell Viability” value in data set [1] worked out at 75.0%.

Take `Cc1ccc(N2CCN(C)CC2)cc1C(=O)N[C@H](C)c1ccc(OCCO)c(-c2cnn(C)c2)c1` [Example 282, N-[(1R)-1-[4-(2-Hydroxyethoxy)-3-(1-methylpyrazol-4-yl)phenyl]ethyl]-2-methyl-5-(4-methylpiperazin-1-yl)benzamide]: at SARS-CoV-2 PLpro, the IC50 was below 2 µM. In addition, the “% Cell Viability” value in data set [1] is reported as 100.0%.

Regarding `COc1ccc([C@@H](C)NC(=O)c2cc(N3CCN(C)CC3)ccc2C)cc1-c1cn[nH]c1` [Example 214, N-[(1R)-1-[4-Methoxy-3-(1H-pyrazol-4-yl)phenyl]ethyl]-2-methyl-5-(4-methylpiperazin-1-yl)benzamide], the IC50 on SARS-CoV-2 PLpro was below 2 µM. Also, in data set [1], the “% Cell Viability” value was 101.2%.

As to `COc1c(-c2cnn(C)c2)cccc1[C@@H](C)NC(=O)c1cc(N2CCN(C)CC2)ccc1C` [Example 226, N-[(1R)-1-[2-Methoxy-3-(1-methylpyrazol-4-yl)phenyl]ethyl]-2-methyl-5-(4-methylpiperazin-1-yl)benzamide], the IC50 at SARS-CoV-2 PLpro is below 10 µM. Besides, the “% Cell Viability” value in data set [1] is reported as 91.4%.

With `COc1ccc([C@@H](C)NC(=O)c2cc(N3C[C@@H]4C[C@H]3CN4)ccc2C)cc1OC` [Example 18, 5-[(1S,4S)-2,5-Diazabicyclo[2.2.1]heptan-2-yl]-N-[(1R)-1-(3,4-dimethoxyphenyl)ethyl]-2-methyl-benzamide], the IC50 on SARS-CoV-2 PLpro is below 20 µM. Moreover, in data set [1], the “% Cell Viability” value was 119.3%.

As to `Cc1ccc(N2CCN(C)CC2)cc1C(=O)N[C@H](C)c1cccc(CCC(=O)NCCO)c1` [Example 96, N-[(1R)-1-[3-[3-(2-Hydroxyethylamino)-3-oxo-propyl]phenyl]ethyl]-2-methyl-5-(4-methylpiperazin-1-yl)benzamide], the IC50 on SARS-CoV-2 PLpro was below 10 µM. Moreover, the “% Cell Viability” value in data set [1] came to 97.3%.

As to `COc1ccc([C@@H](C)NC(=O)c2cc(N3CCNC4(CC4)C3)ccc2C)cc1-c1cnn(C)c1` [Example 241, 5-(4,7-Diazaspiro[2.5]octan-7-yl)-N-[(1R)-1-[4-methoxy-3-(1-methylpyrazol-4-yl)phenyl]ethyl]-2-methyl-benzamide], on SARS-CoV-2 PLpro, the half-maximal inhibitory concentration (IC50) is below 5 µM. Besides, in data set [1], the “% Cell Viability” value was determined as 84.2%.

On to `Cc1ccc(N2CCN(C)CC2)cc1C(=O)N[C@H](C)c1ccc(Cl)c(Br)c1` [Example 201, N-[(1R)-1-(3-Bromo-4-chloro-phenyl)ethyl]-2-methyl-5-(4-methylpiperazin-1-yl)benzamide], for which the IC50 on SARS-CoV-2 PLpro is below 2 µM. In data set [1], the “% Cell Viability” value is reported as 1.0%.

Consider `CC(=O)N1CCN(c2cccc(C(=O)N[C@H](C)c3cccc4ccccc34)c2)CC1` [Example 159, 3-(4-Acetylpiperazin-1-yl)-N-[(1R)-1-(1-naphthyl)ethyl]benzamide], for which the 50% inhibitory concentration (IC50) on SARS-CoV-2 PLpro was above 100 µM. Moreover, the “% Cell Viability” value in data set [1] is recorded as 81.5%.

Consider `COc1ccc([C@@H](C)NC(=O)c2cc(N3C[C@@H]4C[C@H]3CN4C)ccc2C)cc1OC` [Example 12, N-[(1R)-1-(3,4-Dimethoxyphenyl)ethyl]-2-methyl-5-[(1S,4S)-5-methyl-2,5-diazabicyclo[2.2.1]heptan-2-yl]benzamide], for which, at SARS-CoV-2 PLpro, the half-inhibitory concentration (IC50) is below 5 µM. Further, the “% Cell Viability” value in data set [1] came to 91.1%.

In the case of `Cc1ccc(N2CCN(C)CC2)cc1C(=O)N[C@H](C)c1cc(-c2cnn(C)c2)cs1` [Example 232, 2-Methyl-5-(4-methylpiperazin-1-yl)-N-[(1R)-1-[4-(1-methylpyrazol-4-yl)-2-thienyl]ethyl]benzamide], on SARS-CoV-2 PLpro, the IC50 is below 5 µM. Further, in data set [1], the “% Cell Viability” value was 75.2%.

`COc1ccc([C@@H](C)NC(=O)c2cc(N3CCN(C)CC3)ccc2C)cc1F` [Example 185, N-[(1R)-1-(3-Fluoro-4-methoxy-phenyl)ethyl]-2-methyl-5-(4-methylpiperazin-1-yl)benzamide]: the 50% inhibitory concentration (IC50) at SARS-CoV-2 PLpro is below 10 µM. For the same compound, the “% Cell Viability” value in data set [1] came out at 5.6%.

For `Cc1ccc(N2CCN(C)CC2)cc1C(=O)N[C@H](C)c1cccc(-c2c(C)nn(C)c2C)c1` [Example 62, 2-Methyl-5-(4-methylpiperazin-1-yl)-N-[(1R)-1-[3-(1,3,5-trimethylpyrazol-4-yl)phenyl]ethyl]benzamide], on SARS-CoV-2 PLpro, the IC50 is below 2 µM. The “% Cell Viability” value in data set [1] came out at 56.6%.

As for `Cc1ccc(N2CC3(CNC3)C2)cc1C(=O)N[C@H](C)c1cccc2ccccc12` [Example 17, 5-(2,6-Diazaspiro[3.3]heptan-2-yl)-2-methyl-N-[(1R)-1-(1-naphthyl)ethyl]benzamide], the concentration for half-maximal inhibition (IC50) at SARS-CoV-2 PLpro is below 5 µM. Moreover, in data set [1], the “% Cell Viability” value was 34.7%.
